{"source": "patent US20080003691A1", "about": "“Method of Detecting Conformational Change of an Amyloid Protein, a Method of Searching a Substance Having an Activity that Affects to Conformational Change of an Amyloid Protein, and Method of Searching a Therapeutic or Diagnostic Agent for Amyloid-Related Diseases” (Fuence Co., Ltd., priority 2004, published 2008)", "key": {"amyloid β (1-42)": {"biological_target": "T1, amyloid β (1-42) (Homo sapiens, UniProt P05067)", "T1 construct": "Amyloid β (1-42) (Bachem AG, Budendorf, Switzerland); purchased Bachem AG", "T1 sequence (P05067 672-713)": "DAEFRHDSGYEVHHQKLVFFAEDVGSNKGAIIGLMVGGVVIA", "experiment": "changes in tension and elasticity of amyloid β (1-42) film measured with a mechanochemical sensor", "assay_type": "biochemical", "description": "(§1) Amyloid β (1-42) (Bachem AG, Budendorf, Switzerland) was dissolved in 0.1% ammonia water at the concentration of 1 mg/mL. This solution was sprayed under dry air using an electrospry device described in WO 2002-511792 or an immobilzing device described in Japanese Patent Publication No. 2003-136005. The solution was permeated through a mask with holes of 400 μm in length and 800 μm in width, and then a film having 1 μm thickness was prepared on 1.2% polyvinyl pyrrolidone, using an electrospray method (the EDS method). Then protein was cross-linked by glutaraldehyde.\n(§2) The resulting film was placed on an apparatus having a mechanochemical sensor which was described in WO 2002-503332 or U.S. Patent Publication No. 6033913, and it was immersed into 10 mM Hepes pH7.4 buffer solution (hereinafter referred to as “the buffer solution”) containing 0.15 M NaCl. The buffer solution was passed through the film existing on the detecting apparatus at the flow rate of 0.1 to 0.2 mL/min, in order to stabilize the tension of the sample film. Thereafter ZnCl2 solution dissolved in said buffer solution was passed through to detect changes in tension and elasticity (FIG. 1).\nIn FIG. 1, a place where the line uprises from the horizontal state (i.e. steady state), means a point where tension is given to the sample film, and compliance is detected where the line oscillates. […] It is assumed that the particular interaction referred herein is aggregation of amyloid β (1-42) caused by Zn^2+, when considered with many reports such as X. Huang et. al., (J. Biol. Chem., 1997, 272, 26464), C. S. Atwood et. al., (J. Biol. Chem., 1998, 273, 12817), or R. A. Cherny et. al., (Neuron, 2001, 30, 665).\nFurther, concentration of ZnCl2 was altered from 0.01 mM to 3 mM, in order to examine the effect of ZnCl2 concentration (FIG. 2).\nAn amyloid β (1-42) membrane was prepared and placed on a detecting apparatus, as described in EXAMPLE 1. The changes in tension and elasticity of the membrane, by CuCl2 dissolved in the buffer solution, were examined (FIG. 3). […] It has been reported that Cu^2+, as well as Zn^2+, facilitates aggregation of amyloid β."}, "α-synuclein": {"biological_target": "T2, α-synuclein (Homo sapiens, UniProt P37840)", "T2 construct": "purchased BIOMOL International LP", "experiment": "changes in tension and elasticity of α-synuclein film measured with a mechanochemical sensor", "assay_type": "biochemical", "conditions": "FIG. 4", "description": "as §1, §2\nA α-synuclein (BIOMOL International LP, PA, USA) film was prepared and placed on a detecting apparatus, as described in EXAMPLE 1. […]"}}}
{"smiles": "[Cl][Cu][Cl]", "note": "[CuCl2]", "values": [{"measurement": "change in tension and elasticity of the amyloid β (1-42) membrane by CuCl2", "setting": "amyloid β (1-42); CuCl2 dissolved in the buffer solution, FIG. 3", "result": "concentration-dependent change"}]}
{"smiles": "O=C(O)CN(CCN(CC(=O)O)CC(=O)O)CC(=O)O", "note": "[EDTA]", "values": [{"measurement": "tension after EDTA, relative to the state prior to addition of ZnCl2", "setting": "α-synuclein; α-synuclein film previously exposed to ZnCl2", "result": "restored by EDTA almost to the state prior to addition of ZnCl2"}, {"measurement": "tension and elasticity of the film after EDTA, relative to the state prior to addition of ZnCl2", "setting": "amyloid β (1-42); amyloid β (1-42) film previously exposed to ZnCl2, FIG. 1", "result": "restored"}, {"measurement": "tension after EDTA, relative to the state prior to addition of CuCl2", "setting": "amyloid β (1-42); amyloid β (1-42) membrane previously exposed to CuCl2, FIG. 3", "result": "restored by EDTA almost to the state prior to addition of CuCl2"}]}
{"smiles": "[Cl-].[Cl-].[Zn+2]", "note": "[ZnCl2]", "values": [{"measurement": "change in tension and elasticity of the α-synuclein film by ZnCl2", "setting": "α-synuclein; ZnCl2 dissolved in the buffer solution", "result": "concentration-dependent change"}, {"measurement": "change in elasticity with respect to ZnCl2 concentration", "setting": "amyloid β (1-42); ZnCl2 0.01 mM to 3 mM, FIG. 2", "result": "concentration-dependent"}, {"measurement": "isotropic tension and compliance (the inverse of stiffness) of the amyloid β (1-42) film", "setting": "amyloid β (1-42); ZnCl2 solution in 10 mM Hepes pH7.4, 0.15 M NaCl passed over the film, FIG. 1", "result": "remarkably increased"}]}
